Experiments:
Type in all cases: in vivo
[1] = system: Bemisia tabaci; test: Test Example 5: spray on tomato seedling with Bemisia tabaci larvae; details: 168 h, 10 ml/cup sprayed on tomato seedling with hatching Bemisia tabaci larvae, 7 days at 25° C.
Method: The formulations of the present active compounds (1) to (5), (7) to (15), (17) to (21), (25), (28) to (45), (48) to (56), (101) to (103), (106), (107), (117), (118), (121) to (145), (147) to (151), (153) to (155), (204), (206), (208), (209), (211) to (213) and (216) to (221) obtained by Formulation Example 5 were diluted with water so that the active ingredient concentration was 500 ppm, to prepare spray solutions for test. Separately, on a tomato seedling planted on a plastic cup, Bemisia tabaci adult insects were released and allowed to lay eggs for about 24 hours. The tomato seedling was kept in a greenhouse […], and the above-described spray solutions for test were sprayed at a proportion of 10 ml/cup on the condition of hatching of larvae from the laid eggs, and kept in a greenhouse of 25° C. for 7 days. The number of living larvae on the tomato leaves was checked, and the control value was calculated according to the following formula. Control value (%)={1−(Cb×Tai)/(Cai×Tb)}×100 Letters in the formula represent the following meanings. Cb: the number of insect before treatment on non-treated district Cai: the number of insect in observation on non-treated district Tb: the number of insect before treatment on treated district Tai: the number of insect in observation on treated district

[2] = system: Aphis gossypii; test: Test Example 3: root immersion of cucumber seedling, Aphis gossypii; details: 168 h, cucumber root part immersed in 5 ml, inoculated one day after treatment, checked seven days after
Method: The formulations of the present active compounds (18), (19), (21), (22), (24), (25), (28), (31) to (34), (46), (47), (52), (53), (101) to (104), (106) to (108), (112) to (114), (117), (118), (122), (123), (126), (128), (129), (133), (134), (138), (144), (153) to (155) and (157) obtained by Formulation Example 5 were diluted with water so that the active ingredient concentration was 500 ppm, to prepare diluted solutions for test. A root part of a cucumber seedling (first true leaf spreading stage) from which soil had been washed off was immersed in 5 ml of this diluted solution, and one day after treatment, the cucumber leaf surface was inoculated with 30 Aphis gossypii (whole stage). Further seven days after, the number of insect of living Aphis gossypii […] on the leaves of this cucumber was checked, and the control value was calculated according to the following formula. Control value (%)={1-(Cb×Tai)/(Cai×Tb)}×100 Letters in the formula represent the following meanings. Cb: the number of insect before treatment on non-treated district Cai: the number of insect in observation on non-treated district Tb: the number of insect before treatment on treated district Tai: the number of insect in observation on treated district

[3] = system: Nilaparvata lugens; test: Test Example 7: foot drench of rice seedling, thirty first instar larvae of Nilaparvata lugens; details: soil, 144 h, 5 ml drench at foot of rice seedling, kept 7 days, thirty first instar larvae released, further 6 days
Method: The formulations of the present active compounds (11), (13) to (15), (17), (23), (26), (35) to (41), (43) to (45), (48) to (51), (54), (55), (209), (211) and (212) obtained by Formulation Example 5 were diluted with water so that the active ingredient concentration was 500 ppm, to prepare diluted solutions for test. Separately, a rice seedling (2 weeks after sowing, second leaf spreading stage) planted on a plastic cup was drenched at its foot with each 5 ml of the diluted solutions, and kept in a greenhouse of 25° C. for 7 days. Thirty first instar larvae of Nilaparvata lugens were released, and further kept in the greenhouse for 6 days. The number of insect of living Nilaparvata lugens […] on rice was checked, and the control value was calculated according to the following formula. Control value (%)={1-(Cb×Tai)/(Cai×Tb)}×100 Letters in the formula represent the following meanings. Cb: the number of insect before treatment on non-treated district Cai: the number of insect in observation on non-treated district Tb: the number of insect before treatment on treated district Tai: the number of insect in observation on treated district

[4] = system: Aphis gossypii; test: Test Example 2: foot drench of cucumber seedling on urethane mat, Aphis gossypii; details: soil, 168 h, 5 ml drench at foot of cucumber seedling on urethane mat, inoculated one day after treatment, checked seven days after
Method: The formulations of the present active compounds (4), (5), (8), (9), (11), (12), (14), (15), (17), (20), (35) to (45), (48) to (51), (54) to (56), (206), (209) and (211) to (213) obtained by Formulation Example 5 were diluted with water so that the active ingredient concentration was 500 ppm, to prepare diluted solutions for test. Separately, a cucumber seedling (second true leaf spreading stage) planted on a urethane mat was drenched at its foot with each 5 ml of the diluted solutions, and one day after treatment, the cucumber leaf surface was inoculated with 30 Aphis gossypii (whole stage). Further seven days after, the number of insect of living Aphis gossypii […] on the leaves of this cucumber was checked, and the control value was calculated according to the following formula. Control value (%)={1-(Cb×Tai)/(Cai×Tb)}×100 Letters in the formula represent the following meanings. Cb: the number of insect before treatment on non-treated district Cai: the number of insect in observation on non-treated district Tb: the number of insect before treatment on treated district Tai: the number of insect in observation on treated district

[5] = system: Aphis gossypii; test: Test Example 4: foot drench of cucumber seedling in plastic cup, inoculation after 7 days, Aphis gossypii; details: soil, 144 h, 5 ml drench at foot of cucumber seedling in plastic cup, kept 7 days at 25° C., inoculated, further 6 days
Method: The formulations of the present active compounds (3) to (7), (17), (19), (20), (22), (29) to (31), (35) to (37), (39), (41) to (45), (47) to (56), (101), (106), (121) to (123), (128), (131), (137), (139), (143), (145), (147), (211) to (213), (216) and (217) obtained by Formulation Example 5 were diluted with water so that the active ingredient concentration was 500 ppm, to prepare diluted solutions for test. Separately, a cucumber seedling (second true leaf spreading stage) planted on a plastic cup was drenched at its foot with each 5 ml of the diluted solutions, and kept in a greenhouse of 25° C. for 7 days. The cucumber leaf surface was inoculated with 30 Aphis gossypii (whole stage), and further kept in the greenhouse for 6 days, then, the number of insect of living Aphis gossypii […] on the leaves of this cucumber was checked, and the control value was calculated according to the following formula. Control value (%)={1-(Cb×Tai)/(Cai×Tb)}×100 Letters in the formula represent the following meanings. Cb: the number of insect before treatment on non-treated district Cai: the number of insect in observation on non-treated district Tb: the number of insect before treatment on treated district Tai: the number of insect in observation on treated district

Compound | pest or weed control at 500 ppm [3] | pest or weed control at 500 ppm [4] | also measured
Cn1c(-c2ccncc2C#N)nc2cc(C(F)(F)F)cnc21 [present active compound 118] | – | – | pest or weed control at 500 ppm [1]: ≥ 90%; pest or weed control at 500 ppm [2]: ≥ 90%
CC(C)Oc1cnccc1-c1nc2cc(C(F)(F)F)ccc2n1C [present active compound 11, 2-(3-isopropoxypyridin-4-yl)-1-methyl-5-trifluoromethyl-1H-benzimidazole] | ≥ 90% | ≥ 90% | –
CC(C)Sc1cnccc1-c1nc2cc(C(F)(F)F)ccc2n1C [present active compound 23, 2-(3-isopropylthiopyridin-4-yl)-1-methyl-5-trifluoromethyl-1H-benzimidazole] | ≥ 90% | – | –
Cn1c(-c2ccncc2SC(C)(C)C)nc2cc(C(F)(F)F)cnc21 [present active compound 107] | – | – | pest or weed control at 500 ppm [1]: ≥ 90%
C#Cc1cnccc1-c1nc2cc(C(F)(F)F)cnc2n1C [present active compound 211, 2-(3-ethynylpyridin-4-yl-)-3-methyl-6-trifluoromethyl-3H-imidazo[4,5-b]pyridine] | ≥ 90% | – | –
CNS(=O)(=O)c1cnccc1-c1nc2cc(C(F)(F)F)cnc2n1C [present active compound 117] | – | – | pest or weed control at 500 ppm [1]: ≥ 90%; pest or weed control at 500 ppm [2]: ≥ 90%
Cn1c(-c2ccnc(F)c2)nc2cc(C(F)(F)F)ccc21 [present active compound 26, 2-(2-fluoropyridin-4-yl)-1-methyl-5-trifluoromethyl-1H-benzimidazole] | ≥ 90% | – | –
Cn1c(-c2ccncc2OCC(F)F)nc2cc(C(F)(F)F)ccc21 [present active compound 14, 2-[3-(2,2-difluoroethoxy)-pyridin-4-yl]-1-methyl-5-trifluoromethyl-1H-benzimidazole] | – | ≥ 90% | –
Cn1c(-c2ccncc2C(F)(F)F)nc2cc(C(F)(F)F)cnc21 [present active compound 212, 3-methyl-6-trifluoromethyl-2-(3-trifluoromethylpyridin-4-yl-)-3H-imidazo[4,5-b]pyridine] | ≥ 90% | – | –
Cn1c(-c2ccncc2SCC(F)(F)F)nc2cc(C(F)(F)F)cnc21 [present active compound 54, 3-methyl-2-[3-(2,2,2-trifluoroethylthio)pyridin-4-yl]-6-trifluoromethyl-3H-imidazo[4,5-b]pyridine] | ≥ 90% | – | –
CCSc1cnccc1-c1nc2cc(C(F)(F)F)ccc2n1C [present active compound 20, 2-(3-ethylthiopyridin-4-yl)-1-methyl-5-trifluoromethyl-1H-benzimidazole] | – | ≥ 90% | pest or weed control at 500 ppm [5]: ≥ 90%
CCn1c(-c2ccncc2)nc2ccc(C(F)(F)F)cc21 [present active compound 204, 1-ethyl-2-pyridin-4-yl-6-trifluoromethyl-1H-benzimidazole] | – | – | pest or weed control at 500 ppm [1]: ≥ 90%
CSc1cnccc1-c1nc2cc(C(F)(F)F)ccc2n1C [present active compound 17, 1-methyl-2-(3-methylthiopyridin-4-yl)-5-trifluoromethyl-1H-benzimidazole] | ≥ 90% | ≥ 90% | pest or weed control at 500 ppm [5]: ≥ 90%
COc1cnccc1-c1nc2cc(C(F)(F)F)ccc2n1C [present active compound 8, 2-(3-methoxypyridin-4-yl)-1-methyl-5-trifluoromethyl-1H-benzimidazole] | – | ≥ 90% | –
Cn1c(-c2cc[n+]([O-])cc2)nc2cc(C(F)(F)F)cnc21 [present active compound 55, 3-methyl-2-(1-oxypyridin-4-yl)-6-trifluoromethyl-3H-imidazo[4,5-b]pyridine] | ≥ 90% | – | –

— US8461181B2, “Fused heterocyclic compound and use thereof” (Sumitomo Chemical Company, Ltd., priority 2009, dated 2013)
